This is an account of results in ChEMBL document CHEMBL1135339, “Structure-activity relationships of novel anti-malarial agents. Part 4: N-(3-benzoyl-4-tolylacetylaminophenyl)-3-(5-aryl-2-furyl)acrylic acid amides” (Bioorg Med Chem Lett, 2002).

Structures are written as SMILES.

Usually IC50 stands for the midpoint of a concentration-inhibition curve. A lower IC50 goes with greater potency in that assay.

The subject of the assay is Plasmodium falciparum. The assay can be described thus: Inhibitory concentration against multidrug-resistant Plasmodium falciparum Dd2. The format is functional, organism-based.
Turning to `Cc1ccc(CC(=O)Nc2ccc(NC(=O)/C=C/c3ccc(-c4ccc(OC(F)(F)F)cc4)o3)cc2C(=O)c2ccccc2)cc1`, 210 nM corresponded to half-maximal inhibition (IC50).
With `Cc1ccc(CC(=O)Nc2ccc(NC(=O)/C=C/c3ccc(-c4cccc([N+](=O)[O-])c4)o3)cc2C(=O)c2ccccc2)cc1` the figure was 590 nM; with `C=Cc1ccc(-c2ccc(/C=C/C(=O)Nc3ccc(NC(=O)Cc4ccc(C)cc4)c(C(=O)c4ccccc4)c3)o2)cc1`, 85 nM; with `Cc1ccc(CC(=O)Nc2ccc(NC(=O)/C=C/c3ccc(-c4ccccc4[N+](=O)[O-])o3)cc2C(=O)c2ccccc2)cc1`, 670 nM.
With `Cc1ccc(CC(=O)Nc2ccc(NC(=O)/C=C/c3ccc(-c4ccc(C)cc4)o3)cc2C(=O)c2ccccc2)cc1` the figure was 120 nM.
Regarding `Cc1ccc(CC(=O)Nc2ccc(NC(=O)/C=C/c3ccc(-c4ccc(Br)cc4)o3)cc2C(=O)c2ccccc2)cc1`, half-maximal inhibition (IC50) required 125 nM.
With `Cc1ccc(CC(=O)Nc2ccc(NC(=O)/C=C/c3ccc(-c4ccc(F)cc4)o3)cc2C(=O)c2ccccc2)cc1` the figure was 320 nM; with `CCOc1ccc(-c2ccc(/C=C/C(=O)Nc3ccc(NC(=O)Cc4ccc(C)cc4)c(C(=O)c4ccccc4)c3)o2)cc1`, 300 nM.
With `Cc1ccc(CC(=O)Nc2ccc(NC(=O)/C=C/c3ccc(-c4ccc([N+](=O)[O-])cc4)o3)cc2C(=O)c2ccccc2)cc1` the figure was 75 nM; with `Cc1ccc(CC(=O)Nc2ccc(NC(=O)/C=C/c3ccc(-c4ccc5ccccc5c4)o3)cc2C(=O)c2ccccc2)cc1`, 200 nM; with `COc1ccc(-c2ccc(/C=C/C(=O)Nc3ccc(NC(=O)Cc4ccc(C)cc4)c(C(=O)c4ccccc4)c3)o2)cc1`, 130 nM.
With `CCCOc1ccc(-c2ccc(/C=C/C(=O)Nc3ccc(NC(=O)Cc4ccc(C)cc4)c(C(=O)c4ccccc4)c3)o2)cc1` the figure was 750 nM.
On to `Cc1ccc(CC(=O)Nc2ccc(NC(=O)/C=C/c3ccc(-c4ccc(C(C)(C)C)cc4)o3)cc2C(=O)c2ccccc2)cc1`, for which the IC50 came to 300 nM. This IC50 lies about 2.5-fold lower than the previous one.
With `Cc1ccc(CC(=O)Nc2ccc(NC(=O)/C=C/c3ccc(-c4ccc(Cl)cc4)o3)cc2C(=O)c2ccccc2)cc1` the figure was 145 nM; with `CCc1ccc(-c2ccc(/C=C/C(=O)Nc3ccc(NC(=O)Cc4ccc(C)cc4)c(C(=O)c4ccccc4)c3)o2)cc1`, 88 nM.
With `Cc1ccc(CC(=O)Nc2ccc(NC(=O)/C=C/c3ccc(-c4cccc5ccccc45)o3)cc2C(=O)c2ccccc2)cc1` the figure was 1000 nM; with `Cc1ccc(CC(=O)Nc2ccc(NC(=O)/C=C/c3ccc(-c4ccccc4)o3)cc2C(=O)c2ccccc2)cc1`, 415 nM; with `CSc1ccc(-c2ccc(/C=C/C(=O)Nc3ccc(NC(=O)Cc4ccc(C)cc4)c(C(=O)c4ccccc4)c3)o2)cc1`, 84 nM.
